Experimental findings from patent publication US5627181A, “6-membered nitrogen-containing heteroaryl-oxazolidinones” (Bayer Aktiengesellschaft, priority 1994, dated 1997) are described below.

Format in all cases: cell-based
One test concerns Staph 25701. Description: MIC values, Staph 25701. As to conditions: 37° C., about 20 hours. As to the method:
(§1) The minimum inhibitory concentrations (MIC) were determined by the series dilution method on Iso-Sensitest agar (Oxoid). A series of agar plates which contained concentrations of the active compound which decreased by two-fold dilution in each case were prepared for each test substance. The agar plates were inoculated with a Multipoint inoculator (Denley). Overnight cultures of the pathogens which had been diluted beforehand such that each inoculation point contained about 10^4 colony-forming particles were used for the inoculation. The inoculated agar plates were incubated at 37° C. and the germ growth was read off after about 20 hours. The MIC value (μg/ml) indicates the lowest concentration of active compound at which no growth was detectable with the naked eye.
(§2) The MIC values were determined with the aid of the microdilution method in BH medium. Each test substance was dissolved in the nutrient medium. A concentration series of the test substances was prepared in the microtiter plate by serial dilution. Overnight cultures of the pathogens which were diluted 1:250 beforehand in the nutrient medium were used for the inoculation. In each case 100 μl of inoculation solution were added to 100 μl of the diluted nutrient solutions containing the active compound.

In a further test the test system is Klebs. 57 USA. Description: MIC values, Klebs. 57 USA. As to conditions: 37° C., about 20 hours. The protocol: as §1, §2
The next test deals with Staph. 9TV. Put plainly: MIC values, Staph. 9TV. As to conditions: 37° C., about 20 hours. As to the method: as §1, §2
Another test deals with E. coli Neumann. Description: MIC values, E. coli Neumann. As to conditions: Escherichia coli, 37° C., about 20 hours. As to the method: as §1, §2
The next test has as its system Staph. 48N. Put plainly: MIC values, Staph. 48N. As to conditions: 37° C., about 20 hours. As to the method: as §1, §2
Another test has as its system Staph. 133. Put plainly: MIC values, Staph. 133. As to conditions: 37° C., about 20 hours. The protocol:
as §1, §2

The subject of a further test is Psdm. Bonn. Put plainly: MIC values, Psdm. Bonn. As to conditions: 37° C., about 20 hours. As to the method:
as §1, §2

Converted amounts (≈) assume the structure as drawn.

`CC(=O)NC[C@H]1CN(c2ccc3ncccc3c2)C(=O)O1` [Example 29]: the minimum inhibitory concentration (MIC) in the test on Staph 25701 is 8 µg/mL (≈ 28 µM); against Klebs. 57 USA, over 64 µg/mL; in the test on Staph. 9TV, 8 µg/mL (≈ 28 µM); against E. coli Neumann, over 64 µg/mL; in the test with Staph. 48N, 8 µg/mL (≈ 28 µM); in the test on Staph. 133, 8 µg/mL (≈ 28 µM).

In the case of `CC(=O)NC[C@H]1CN(c2ccc(-c3ccc(C)cc3)cn2)C(=O)O1` [Example 36, (5S)-3-[5-(4-Methylphenyl)pyridin-2-yl]-5-acetyl-aminomethyl-oxazolidin-2-one], the MIC against Staph 25701 was 4 µg/mL (≈ 12.3 µM); in the test on Klebs. 57 USA, over 32 µg/mL; with Staph. 9TV, 1 µg/mL (≈ 3.07 µM); in the test on E. coli Neumann, over 32 µg/mL; with Psdm. Bonn, over 32 µg/mL; with Staph. 48N, 4 µg/mL (≈ 12.3 µM). In the test with Staph. 133, this compound yielded an MIC of 4 µg/mL (≈ 12.3 µM).

Turning to `CC(=O)NC[C@H]1CN(c2ccc(-c3ccccc3)cn2)C(=O)O1` [Example 37], the MIC in the test with Staph 25701 is 1 µg/mL (≈ 3.21 µM); in the test with Klebs. 57 USA it was over 32 µg/mL; in the test on Staph. 9TV, 0.5 µg/mL (≈ 1.61 µM); in the test on E. coli Neumann, over 32 µg/mL; against Psdm. Bonn, over 32 µg/mL; against Staph. 48N, 1 µg/mL (≈ 3.21 µM). Also, in the test on Staph. 133, it took 1 µg/mL (≈ 3.21 µM) to inhibit growth (MIC).

As for `CC(=O)NC[C@H]1CN(c2ccc(-c3ccccc3C=O)cn2)C(=O)O1` [Example 38], the MIC in the test on Staph 25701 is 8 µg/mL (≈ 23.6 µM); in the test on Klebs. 57 USA, over 32 µg/mL; in the test on Staph. 9TV it was 2 µg/mL (≈ 5.89 µM); against E. coli Neumann it was over 32 µg/mL; in the test on Psdm. Bonn, over 32 µg/mL; with Staph. 48N, 4 µg/mL (≈ 11.8 µM). Moreover, the MIC with Staph. 133 worked out at 4 µg/mL (≈ 11.8 µM).

Regarding `CC(=O)NC[C@H]1CN(c2ccc(-c3cccc(C=O)c3)cn2)C(=O)O1` [Example 39], the MIC against Staph 25701 was 0.5 µg/mL (≈ 1.47 µM); against Klebs. 57 USA, over 32 µg/mL; with Staph. 9TV, 0.125 µg/mL (≈ 0.368 µM); against E. coli Neumann it was over 32 µg/mL; in the test on Psdm. Bonn, over 32 µg/mL; against Staph. 48N, 0.5 µg/mL (≈ 1.47 µM). This compound also gave an MIC with Staph. 133 of 0.25 µg/mL (≈ 0.737 µM).

In the case of `CC(=O)NC[C@H]1CN(c2ccc(-c3ccc(C=O)cc3)cn2)C(=O)O1` [Example 40], the MIC in the test with Staph 25701 is 1 µg/mL (≈ 2.95 µM); in the test on Klebs. 57 USA it was over 32 µg/mL; against Staph. 9TV, 0.5 µg/mL (≈ 1.47 µM); against E. coli Neumann it was over 32 µg/mL; against Psdm. Bonn, over 32 µg/mL; in the test on Staph. 48N it was 1 µg/mL (≈ 2.95 µM). For the same compound, the MIC with Staph. 133 is 1 µg/mL (≈ 2.95 µM).

Consider `CC(=O)NC[C@H]1CN(c2ccc(-c3ccc(C(C)=O)cc3)cn2)C(=O)O1` [Example 41], for which the MIC with Staph 25701 was 4 µg/mL (≈ 11.3 µM); in the test on Klebs. 57 USA, over 32 µg/mL; in the test on Staph. 9TV it was 1 µg/mL (≈ 2.83 µM); against E. coli Neumann it was over 32 µg/mL; against Psdm. Bonn it was over 32 µg/mL; in the test with Staph. 48N it was 4 µg/mL (≈ 11.3 µM). Further, in the test on Staph. 133, the lowest concentration to inhibit growth (MIC) was 2 µg/mL (≈ 5.66 µM).

On to `CC(=O)NC[C@H]1CN(c2ccc(-c3cccc(C(C)=O)c3)cn2)C(=O)O1` [Example 42], for which the MIC was 4 µg/mL (≈ 11.3 µM) against Staph 25701; over 64 µg/mL in the test on Klebs. 57 USA; 4 µg/mL (≈ 11.3 µM) against Staph. 9TV; over 64 µg/mL against E. coli Neumann; 4 µg/mL (≈ 11.3 µM) in the test on Staph. 48N; 4 µg/mL (≈ 11.3 µM) in the test on Staph. 133.

As for `CC(=O)NC[C@H]1CN(c2ccc(-c3ccc(C(C)=O)s3)cn2)C(=O)O1` [Example 43], the MIC against Staph 25701 was 0.5 µg/mL (≈ 1.39 µM); in the test with Klebs. 57 USA, over 32 µg/mL; in the test on Staph. 9TV it was 0.25 µg/mL (≈ 0.696 µM); in the test with E. coli Neumann it was over 32 µg/mL; with Psdm. Bonn, over 32 µg/mL; in the test with Staph. 48N, 0.5 µg/mL (≈ 1.39 µM). For the same compound, 0.25 µg/mL (≈ 0.696 µM) was the least that counted as inhibitory with Staph. 133 (MIC).

Regarding `CC(=O)NC[C@H]1CN(c2ccc(-c3csc(C=O)c3)cn2)C(=O)O1` [Example 44], the MIC in the test on Staph 25701 is 2 µg/mL (≈ 5.79 µM); in the test on Klebs. 57 USA, over 32 µg/mL; against Staph. 9TV, 2 µg/mL (≈ 5.79 µM); in the test on E. coli Neumann, over 32 µg/mL; in the test on Psdm. Bonn, over 32 µg/mL; in the test on Staph. 48N it was 4 µg/mL (≈ 11.6 µM). For the same compound, the MIC in the test with Staph. 133 worked out at 2 µg/mL (≈ 5.79 µM).

For `CC(=O)NC[C@H]1CN(c2ccc(-c3ccc(F)c(Cl)c3)cn2)C(=O)O1` [Example 46], the MIC with Staph 25701 was 4 µg/mL (≈ 11 µM); against Klebs. 57 USA, over 64 µg/mL; in the test with Staph. 9TV it was 2 µg/mL (≈ 5.5 µM); against E. coli Neumann, over 64 µg/mL; with Psdm. Bonn it was over 64 µg/mL; with Staph. 48N, 2 µg/mL (≈ 5.5 µM). In the test with Staph. 133, this compound had an MIC of 8 µg/mL (≈ 22 µM).

Regarding `CC(=O)NC[C@H]1CN(c2ccc(-c3ccc(F)cc3)cn2)C(=O)O1` [Example 47], the MIC with Staph 25701 was 1 µg/mL (≈ 3.04 µM); against Klebs. 57 USA, over 64 µg/mL; in the test on Staph. 9TV, 1 µg/mL (≈ 3.04 µM); with E. coli Neumann it was over 64 µg/mL; with Psdm. Bonn, over 64 µg/mL; with Staph. 48N it was 2 µg/mL (≈ 6.07 µM). In the test with Staph. 133, the MIC came out at 4 µg/mL (≈ 12.1 µM).

For the compound `CC(=O)NC[C@H]1CN(c2ccc(-c3cccc([N+](=O)[O-])c3)cn2)C(=O)O1` [Example 48], the MIC is 2 µg/mL (≈ 5.61 µM) with Staph 25701; over 64 µg/mL with Klebs. 57 USA; 1 µg/mL (≈ 2.81 µM) against Staph. 9TV; over 64 µg/mL in the test on E. coli Neumann; over 64 µg/mL against Psdm. Bonn; 2 µg/mL (≈ 5.61 µM) in the test on Staph. 48N. In the test with Staph. 133, this compound registered an MIC of 4 µg/mL (≈ 11.2 µM).

Take `CC(=O)NC[C@H]1CN(c2ccc3cccc(-c4ccc(C)cc4)c3n2)C(=O)O1` [Example 59]: the MIC is 1 µg/mL (≈ 2.66 µM) against Staph 25701; over 32 µg/mL against Klebs. 57 USA; 1 µg/mL (≈ 2.66 µM) in the test on Staph. 9TV; over 32 µg/mL in the test with E. coli Neumann; over 32 µg/mL in the test with Psdm. Bonn; 2 µg/mL (≈ 5.33 µM) in the test with Staph. 48N. Besides, the lowest concentration to inhibit growth with Staph. 133 (MIC) was 1 µg/mL (≈ 2.66 µM).

In general, MIC refers to the lowest concentration that inhibits growth of the organism.
